{"source": "patent US20060014828A1", "about": "(priority 2004, published 2006)", "origin": "cited, not measured here", "note": "Structures can show the parent of a compound that is named as a salt."}
{"compound": "NNc1nncc2ccccc12", "note": "[Hydralazine hydrochloride]", "values": [{"measurement": "Solubility in alcohol", "result": "slightly soluble"}, {"measurement": "Solubility in ether", "result": "very slightly soluble"}, {"measurement": "Solubility in water", "result": "soluble"}]}
{"compound": "O=[N+]([O-])O[C@H]1CO[C@H]2[C@@H]1OC[C@H]2O[N+](=O)[O-]", "note": "[isosorbide dinitrate, 1,4,3,6-dianhydro-D-glucitol-2,5-dinitrate]", "values": [{"measurement": "Solubility in organic solvents such as ethanol, ether and chloroform", "result": "freely soluble"}, {"measurement": "Solubility in water", "result": "sparingly soluble"}]}
